The subject of series [1] is Calu-3 cells. As to the kind of experiment: MTS assay of metabolic activity / cell viability. Format: cell-based, human. The following applies: 5 nM to 200 μM, 6 hours.
Experimental: To assess 3OC12-HSL and C7 PQS molecules cytotoxicity on cell viability of Calu-3 cell layers and to monitor short-term cytotoxicity during experiments, Calu-3 cells were treated with 3OC12-HSL and C7 PQS, at concentrations 5 nM, 1 μM, 50 μM, 100 μM and 200 μM, for 6 hours. At the end of the treatment, cell viability (through measuring metabolic activity) of cultures was determined by chromogenic MTS assay.
Series [2] concerns all three cell lines. In words: MTS metabolic activity in all three cell lines. To be noted: 200 μM. It counts as cell-based, human. The method, then: The viability of Calu-3 cells was determined by a chromogenic MTS method based on the measuring of mitochondrial respiration, assessed by the reduction of 3-(4,5-dimethylthiazol-2-yl)-5-(3-carboxymethoxyphenyl)-2-(4-sulfophenyl)-2H-tetrazolium to formazan. Calu-3 cells were cultured in a 96-well plate (CellTiter 96® Aqueous, Promega) at a density of 10^4 cells per well and incubated at 37° C., 5% CO2 for 24 hours. After 24 hours, the medium was replaced with 100 μl of test compounds dissolved in HBSS and then cells were incubated for 6 hours. HBSS and Triton X-100 (0.1% v/v in HBSS) were used as the negative and positive controls respectively. Bathing solutions were then aspirated and cells washed with PBS. Then culture medium (100 μl at 37° C.) plus MTS reagent (20 μl) were added into each well and cells were incubated for 2 hours. Absorbance at 492 was measured using a Dynex absorbance microplate reader (Dynex Technologies, USA) and converted into a percentage metabolic rate.
No significant reduction in cell metabolic activity was observed. Cell viability of >75% was retained in all cases.

In series [3] the test system is Calu-3. In words: Further in vitro Transwell studies: enhancing translocation of 4 kDa FITC-dextran. Format: cell-based, human. The method, then:
Exemplary molecules (a)-(1) investigated in coarse dose-response by FD4 delivery in Transwell culture (Calu-3). Each molecule was screened at 5 nM, 1 μM, 200 μM levels.
Each compound was screened at 200 μM level.
Each molecule was screened at 5 nM, 1 μM, 200 μM levels.

For series [4], the system named is ZO-1. In words: ZO-1 immunostaining and confocal microscopy of Calu-3 cell layers. Format: cell-based, human. The following applies: 200 μM, one hour, vs vehicle 0.15% DMSO. The method, then: To visualise the effect of 3OC12-HSL and C7 PQS on tight junction integrity in Calu-3 cell layers, ZO-1, immunostaining and confocal microscopy was performed on cell layers treated by 200 μM 3OC12-HSL and C7 PQS and control (0.15% DMSO in HBSS) for one hour. Confluent cell monolayers were washed with PBS and fixed in 4% paraformaldehyde in PBS for approximately 10 min at room temperature. Cells were then washed 3 times with PBS and permeabilised by incubating with Triton X-100 (0.1% v/v in PBS) for 10 min. Cells were then washed with PBS, followed by the application of 1% BSA/PBS for approximately 1 hour. Thereafter, BSA/PBS solution was aspirated and replaced with mouse, anti-human ZO-1 (primary) antibody, diluted in 1% BSA/PBS to a final concentration of 100 μg/ml. Cell samples were incubated with the primary antibody for 2 hours. The primary antibody solution was then removed and cells washed with PBS (5 times). FITC-labelled goat, anti-mouse (secondary) antibody, diluted according to manufacturer's instructions in 1% BSA/PBS was then applied to the cells for 1 hour. The secondary antibody solution was then aspirated and cells washed with PBS three times. […]

Series [5] has as its system human primary lung epithelium. In words: Human primary lung epithelium, air-liquid interface culture: TEER, FD4 and mAb delivery. It counts as cell-based.
The test system of series [6] is diabetic rat model with increased retinal permeability. As to the kind of experiment: Topical eye administration in diabetic rat model with increased vascular permeability. Format: in vivo, Norway Brown rats. The following applies: topical co-application vs Bevacizumab alone.

In the case of `CCCCCCCCCC(=O)CC(=O)N[C@H]1CCOC1=O` [Agent 3OC12-HSL, N-(3-oxododecanoyl) homoserine lactone], the “cytotoxic effect on cell viability within epithelial layers” value in series [1] was “do not have an adverse cytotoxic effect”. For the same compound, in series [2], the “metabolic activity compared to the negative control” value is on record as “did not change the metabolic activity”. Further, the “Effective in enhancing translocation” value in series [3] is “Yes”. For the same compound, the “ZO-1 distribution at tight junctions” value in series [4] was “considerable dislocation of ZO-1 proteins”. Also, in series [5], the “TEER (electrical resistance) upon agent exposure” value is reported as “temporarily reduced” and the “mAb (Mepolizumab) delivery upon agent exposure” value is “increased”. Further, in series [6], the “delivery of Bevacizumab into the posterior chamber of rat eyes (confocal images)” value is “significantly enhance”.

The values are drawn from patent publication US20250302816A1, “DISRUPTION OF EPITHELIAL BARRIERS FOR MOLECULAR DELIVERY ENHANCEMENT OR EXTRACTION OF EXTRACELLULAR FLUIDS” (The University of Nottingham, priority 2022, published 2025).
